One experiment deals with T1, XIAP-BIR3 (Homo sapiens, UniProt P98170).
T1 construct: XIAP-BIR3; purchased Reaction Biology APT-11-374
The experiment can be described thus: XIAP-BIR3 fluorescence polarization binding assay. The settings on record: FP, probe AbuRPFK-5FAM (SM5F) 5 nM, XIAP-BIR3 40 nM, 60 min at 25° C. The essentials: (§1)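 Fluorescence polarization competition using 5-carboxyfluorescein-labelled peptide probe AbuRPFK-5FAM; protein and compound preincubated 15 min, probe added, then 60 min at 25° C.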
On the technique in general: In fluorescence polarisation assays a small probe gives low polarisation when free and higher when bound to something large.

In the next experiment the target is T2, cIAP1-BIR3 (Homo sapiens, UniProt Q13490).
T2 construct: cIAP1-BIR3; purchased Reaction Biology APT-11-370
The experiment can be described thus: cIAP1-BIR3 fluorescence polarization binding assay. The settings on record: FP, probe AbuRPFK-5FAM (SM5F) 5 nM, cIAP1-BIR3 15 nM, 60 min at 25° C. Summed up:
as §1

For the next experiment, the target named is T3, cIAP2-BIR3 (Homo sapiens, UniProt Q13489).
T3 construct: cIAP2-BIR3; purchased Reaction Biology APT-11-372
The experiment in a line: cIAP2-BIR3 fluorescence polarization binding assay. The settings on record: FP, probe AbuRPFK-5FAM (SM5F) 5 nM, cIAP2-BIR3 80 nM, 60 min at 25° C. The essentials:
as §1

SMILES strings stand for the structures.

T3 sequence (Q13489 238-349 limits assumed): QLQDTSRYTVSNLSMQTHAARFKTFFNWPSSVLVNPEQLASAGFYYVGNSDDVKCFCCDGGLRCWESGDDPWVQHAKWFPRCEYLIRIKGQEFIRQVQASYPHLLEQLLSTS
T2 sequence (Q13490 253-363 limits assumed): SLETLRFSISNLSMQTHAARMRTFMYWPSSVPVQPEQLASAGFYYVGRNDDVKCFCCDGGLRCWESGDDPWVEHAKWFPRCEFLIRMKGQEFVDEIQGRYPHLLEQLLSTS
T1 sequence (P98170 241-356 limits assumed): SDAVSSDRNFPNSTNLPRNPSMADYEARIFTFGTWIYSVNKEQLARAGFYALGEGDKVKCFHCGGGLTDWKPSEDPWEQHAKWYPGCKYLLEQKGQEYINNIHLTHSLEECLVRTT

The IC50 is the midpoint of a concentration-inhibition curve. Lower therefore signals greater potency. As to `CN[C@@H](C)C(=O)N[C@H](C(=O)N1CCC[C@H]1C(=O)N[C@@H]1CCCc2c(-c3ccc(-c4ccc(-c5cccc6c5CCC[C@H]6NC(=O)[C@@H]5CCCN5C(=O)[C@@H](NC(=O)[C@H](C)NC)C5CCCCC5)cc4)cc3)cccc21)C1CCCCC1` [Compound III-G, (S)-1-((S)-2-cyclohexyl-2-((S)-2-(methylamino)propanamido)acetyl)-N—((R)-5-(4′-((R)-5-((S)-1-((S)-2-cyclohexyl-2-((S)-2-(methylamino)propanamido)acetyl)pyrrolidine-2-carboxamido)-5,6,7,8-tetrahydronaphthalen-1-yl)-[1,1′-biphenyl]-4-yl)-1,2,3,4-tetrahydronaphthalen-1-yl)pyrrolidine-2-carboxamide], the figures for the IC50 on XIAP-BIR3, on cIAP1-BIR3 and at cIAP2-BIR3 were 100 to 1000 nM, 1 to 10 nM and 10 to 100 nM, respectively.

Turning to `CN[C@@H](C)C(=O)N[C@@H](C)C(=O)N1CCC[C@H]1C(=O)N[C@@H]1CCCc2c(-c3ccc(-c4cccc5c4CCC[C@H]5NC(=O)[C@@H]4CCCN4C(=O)[C@H](C)NC(=O)[C@H](C)NC)cc3)cccc21` [Compound III-H, (2S)-1-[(2S)-2-[(2S)-2-(methylamino)propanamido]propanoyl]-N-[(1R)-5-[4-[(5R)-5-[(2S)-1-[(2S)-2-[(2S)-2-(methylamino)propanamido]propanoyl]pyrrolidine-2-amido]-5,6,7,8-tetrahydronaphthalen-1-yl]phenyl]-1,2,3,4-tetrahydronaphthalen-1-yl]pyrrolidine-2-carboxamide], the half-maximal inhibitory concentration (IC50) lay within 100 to 1000 nM on XIAP-BIR3, 1 to 10 nM on cIAP1-BIR3 and 10 to 100 nM on cIAP2-BIR3.

For the compound `CN[C@@H](C)C(=O)N[C@H](C(=O)N1CCC[C@H]1C(=O)N[C@@H]1CCOc2c(-c3cccc4c3OCC[C@H]4NC(=O)[C@@H]3CCCN3C(=O)[C@@H](NC(=O)[C@H](C)NC)C3CC3)cccc21)C1CC1` [Compound V-E, (2S)-1-[(2S)-2-cyclopropyl-2-[(2S)-2-(methylamino)propanamido]acetyl]-N-[(4R)8-[(4R)-4-[(2S)-1-[(2S)-2-cyclopropyl-2-[(2S)-2-(methylamino)propanamido]acetyl]pyrrolidine-2-amido]-3,4-dihydro-2H-1-benzopyran-8-yl]-3,4-dihydro-2H-1-benzopyran-4-yl]pyrrolidine-2-carboxamide], the 50% inhibitory concentration (IC50) at XIAP-BIR3 lay in the range of 10 to 100 nM; on cIAP1-BIR3, 1 to 10 nM; on cIAP2-BIR3, 10 to 100 nM.

As for `CN[C@@H](C)C(=O)N[C@H](C(=O)N1CCC[C@H]1C(=O)N[C@@H]1CCCc2c(OCCc3ccc(CCOc4cccc5c4CCC[C@H]5NC(=O)[C@@H]4CCCN4C(=O)[C@@H](NC(=O)[C@H](C)NC)C4CCCCC4)cc3)cccc21)C1CCCCC1` [Compound I, (2S)-1-[(2S)-2-Cyclohexyl-2-[(2S)-2-(methylamino)propanamido]acetyl]-N-[(1R)-5-[2-[4-(2-[[(5R)-5-[(2S)-1-[(2S)-2-cyclohexyl-2-[(2S)-2-(methylamino)propanamido]acetyl]pyrrolidine-2-amido]-5,6,7,8-tetrahydronaphthalen-1-yl]oxy]ethyl)phenyl]ethoxy]-1,2,3,4-tetrahydmnaphthalen-1-yl]pyrrolidine-2-carboxamide], the half-maximal inhibitory concentration (IC50) at XIAP-BIR3 was 10 to 100 nM; on cIAP1-BIR3, 1 to 10 nM; on cIAP2-BIR3, 10 to 100 nM.

For the compound `CN[C@@H](C)C(=O)N[C@H](C(=O)N1CCC[C@H]1C(=O)N[C@@H]1CCCc2c(OCCOCCOc3cccc4c3CCC[C@H]4NC(=O)[C@@H]3CCCN3C(=O)[C@@H](NC(=O)[C@H](C)NC)C3CCOCC3)cccc21)C1CCOCC1` [Compound II-B, (2S)-1-[(2S)-2-[(2S)-2-(Methylamino)propanamido]-2-(oxan-4-yl)acetyl]-N-[(1R)-5-[2-(2-{[(5R)-5-[(2S)-1-[(2S)-2-[(2S)-2-(methylamino)propanamido]-2-(oxan-4-yl)acetyl]pyrrolidine-2-amido]-5,6,7,8-tetrahydronaphthalen-1-yl]oxy}ethoxy)ethoxy]-1,2,3,4-tetrahydronaphthalen-1-yl]pyrrolidine-2-carboxamide], the IC50 on XIAP-BIR3 is 10 to 100 nM; at cIAP1-BIR3, 1 to 10 nM; on cIAP2-BIR3 it was 10 to 100 nM.

Consider `CN[C@@H](C)C(=O)N[C@H](C(=O)N1CCC[C@H]1C(=O)N[C@@H]1CCCc2c(Nc3cccc4c3CCC[C@H]4NC(=O)[C@@H]3CCCN3C(=O)[C@@H](NC(=O)[C@H](C)NC)C3CCCCC3)cccc21)C1CCCCC1` [Compound VI, (S)-1-((S)-2-cyclohexyl-2-((S)-2-(methylamino)propanamido)acetyl)-N—((R)-5-(((R)-5-((S)-1-((S)-2-cyclohexyl-2-((S)-2-(methylamino)propanamido)acetyl)pyrrolidine-2-carboxamido)-5,6,7,8-tetrahydronaphthalen-1-yl)amino)-1,2,3,4-tetrahydronaphthalen-1-yl)pyrrolidine-2-carboxamide], for which the values for the IC50 on XIAP-BIR3, at cIAP1-BIR3 and at cIAP2-BIR3 were 10 to 100 nM, 1 to 10 nM and 10 to 100 nM, respectively.

With `CN[C@@H](C)C(=O)N[C@H](C(=O)N1CCC[C@H]1C(=O)N[C@@H]1CCCc2c(-c3ccc(-c4cccc5c4CCC[C@H]5NC(=O)[C@@H]4CCCN4C(=O)[C@@H](NC(=O)[C@H](C)NC)C(C)(C)C)cc3)cccc21)C(C)(C)C` [Compound III-J, (2S)-1-[(2S)-3,3-dimethyl-2-[(2S)-2-(methylamino)propanamido]butanoyl]-N-[(1R)-5-[4-[(5R)-5-[(2S)-[-(2S)-3,3-dimethyl-2-[(2S)-2-(methylamino)propanamido]butanoyl]pyrrolidine-2-amido]-5,6,7,8-tetrahydronaphthalen-1-yl]phenyl]-1,2,3,4-tetrahydronaphthalen-1-yl]pyrrolidine-2-carboxamide], the results for the IC50 at XIAP-BIR3, on cIAP1-BIR3 and at cIAP2-BIR3 were 10 to 100 nM, 1 to 10 nM and 1 to 10 nM, respectively.

Consider `CN[C@@H](C)C(=O)N[C@H](C(=O)N1CCC[C@H]1C(=O)N[C@@H]1CCOc2c(-c3cccc4c3OCC[C@H]4NC(=O)[C@@H]3CCCN3C(=O)[C@@H](NC(=O)[C@H](C)NC)C3CCOCC3)cccc21)C1CCOCC1` [Compound V-Q, (S)-1-((S)-2-((S)-2-(methylamino)propanamido)-2-(tetrahydro-2H-pyran-4-yl)acetyl)-N-((4R,4′R)-4′-((S)-1-((S)-2-((S)-2-(methylamino)propanamido)-2-(tetrahydro-2H-pyran-4-yl)acetyl)pyrrolidine-2-carboxamido)-[8,8′-bichroman]-4-yl)pyrrolidine-2-carboxamide], for which the IC50 at XIAP-BIR3 was 10 to 100 nM; at cIAP1-BIR3 it was 1 to 10 nM; at cIAP2-BIR3, 10 to 100 nM.

`CC[C@H](NC(=O)[C@H](C)NC)C(=O)N1CCC[C@H]1C(=O)N[C@@H]1CCCc2c(-c3cccc(-c4cccc5c4CCC[C@H]5NC(=O)[C@@H]4CCCN4C(=O)[C@H](CC)NC(=O)[C@H](C)NC)c3)cccc21` [III-D, (2S)-1-[(2S)-2-[(2S)-2-(methylamino)propanamido]butanoyl]-N-[(1R)-5-[3-[(5R)-5-[(2S)-1-[(2S)-2-[(2S)-2-(methylamino)propanamido]butanoyl]pyrrolidine-2-amido]-5,6,7,8-tetrahydronaphthalen-1-yl]phenyl]-1,2,3,4-tetrahydronaphthalen-1-yl]pyrrolidine-2-carboxamide]: the IC50 on XIAP-BIR3 fell in the range of 10 to 100 nM; at cIAP1-BIR3, 1 to 10 nM; on cIAP2-BIR3, 10 to 100 nM.

With `CC[C@H](NC(=O)[C@H](C)NC)C(=O)N1CCC[C@H]1C(=O)N[C@@H]1CCc2c(-c3cccc4c3CC[C@H]4NC(=O)[C@@H]3CCCN3C(=O)[C@H](CC)NC(=O)[C@H](C)NC)cccc21` [Compound V-O, (2S,2'S)—N,N′-((1R,1′R)-2,2′,3,3′-tetrahydro-1H,1′H-[4,4′-biindene]-1,1′-diyl)bis(1-((S)-2-((S)-2-(methylamino)propanamido)butanoyl)pyrrolidine-2-carboxamide)], the IC50 was in the range of 10 to 100 nM at XIAP-BIR3, 1 to 10 nM at cIAP1-BIR3 and 10 to 100 nM on cIAP2-BIR3.

The values are drawn from patent US20220220152A1, “BIVALENT ANTAGONISTS OF INHIBITORS OF APOPTOSIS PROTEINS” (Hepagene Therapeutics (HK) Limited, priority 2019, published 2022).
